The subject of assay [1] is HCT116. As to the kind of experiment: efficacy (fitted maximal change in viability relative to DMSO control); higher = less cytotoxic (negative = loss of viability). The following applies: 48 h.
Assay [2] deals with HCT116. Kind of assay: AC50 cell viability (CellTiter-Glo); higher = less potent. The following applies: 48 h. (In general: Cellular ATP, detected with luciferase, serves as a proxy for viable cell number.)

Structures can show the parent of a compound that is named as a salt.
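For AC50 cell viability (CellTiter-Glo) in this document: HCT116 colorectal carcinoma cells screened at five concentrations per compound, luminescent viability scaled between DMSO wells and empty wells on each plate, curves fitted per compound.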
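For efficacy (fitted maximal change in viability relative to DMSO control) in this document: Luminescence-based viability readout, five doses per compound, normalized against on-plate DMSO and empty-well controls, followed by dose-response curve fitting for every drug.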

With `CNC(=O)c1ccccc1Sc1ccc2c(/C=C/c3ccccn3)n[nH]c2c1` [Axitinib], the efficacy in assay [1] is -80.4%. In assay [2], the AC50 cell viability turned out to be 14.8 µM.
In the same order, the values of `Cn1cnc([N+](=O)[O-])c1Sc1ncnc2nc[nH]c12` [Azathioprine] are -83.7% and 2.63 µM.
Turning to `COc1ccc(N(C)c2nc(C)nc3ccccc23)cc1` [Azixa], the efficacy in assay [1] was -64.3%. In assay [2], the AC50 cell viability came to 0.00372 µM.
For the molecule `CCc1cc(/C(C)=N/OCc2ccc(C3CCCCC3)c(C(F)(F)F)c2)ccc1CN1CC(C(=O)O)C1` [BAF-312], the efficacy in assay [1] is -66.2%. This molecule also had an AC50 cell viability in assay [2] of 20.9 µM.
In the same order, the values of `Cc1nc2cnc3ccc(C#Cc4cccnc4)cc3c2n1-c1ccc(C(C)(C)C#N)cc1` [BAG-956] are -92.6% and 1.18 µM.
For `COc1ccc(-c2cc3nccn3c(Nc3ncccc3C(N)=O)n2)cc1OC` [BAY61-3606], the efficacy in assay [1] was -66.9%. Also, the AC50 cell viability in assay [2] turned out to be 4.17 µM.
Regarding `Nc1nc(-c2nn(Cc3ccccc3F)c3ncccc23)ncc1C1CC1` [BAY-41-2272], the efficacy in assay [1] is -51.2%. This molecule also showed an AC50 cell viability in assay [2] of 1.05 µM.
Take `CC1=NN=C(C[C@@H]2\C=C(C3=CC=C(Cl)C=C3)/C4=CC=CC=C4[N]5C(=NN=C25)C)O1` [BAY-356]: the efficacy in assay [1] was -72.7%. In assay [2], this molecule had an AC50 cell viability of 0.934 µM.
In the same order, the values of `Cc1c(NC(=O)c2cc(C(N)=O)nc3cc(F)ccc23)c(C(F)(F)F)nn1Cc1ccc(C#N)cc1` [BAY-876] are -89.3% and 4.68 µM.
In the same order, the values of `Cn1c(=O)n(-c2ccc(C(C)(C)C#N)cc2)c2c3cc(-c4cnc5ccccc5c4)ccc3ncc21` [BEZ-235] are -60.5% and 0.135 µM.
On the same counts, the results for `CC1(C)C(=O)N(c2ccc(C#N)c(C(F)(F)F)c2)C(=S)N1Cc1ccc(-c2c[nH]nn2)cc1` [BG-15a] are -68.8% and 20.9 µM.
Take `C=CC(=O)N1CCC(C2CCNc3c(C(N)=O)c(-c4ccc(Oc5ccccc5)cc4)nn32)CC1` (stereo not drawn) [BGB-3111]: the efficacy in assay [1] is -62.4%. The same molecule registered an AC50 cell viability in assay [2] of 18.6 µM.
On the same counts, the results for `O=[N+]([O-])c1cnc(Sc2nnc(O)n2-c2ccc3c(c2)OCCO3)s1` [BI-78D3] are -94.7% and 11.8 µM.
On the same counts, the results for `COC1=C(CN(C)C)C=C(OC)C(=C1)C/2=C/N(C)C(=O)C3=C2C=CN=C3` [BI-9564] are -71.5% and 14.8 µM.
On the same counts, the results for `CCCCCCOC(=O)/N=C(/N)c1ccc(NCc2nc3cc(C(=O)N(CCC(=O)OCC)c4ccccn4)ccc3n2C)cc1` [BIBR-1048] are -59.4% and 18.6 µM.
With `O=C1Nc2cc(Br)ccc2/C1=C1/Nc2ccccc2/C1=N\O` [BIO], in assay [1], the efficacy is -102%. In assay [2], the AC50 cell viability was 10.5 µM.
In the same order, the values of `Nc1cc(C(F)(F)F)c(-c2cc(N3CCOCC3)nc(N3CCOCC3)n2)cn1` [BKM-120] are -71.8% and 1.66 µM.
In the same order, the values of `CNC(=O)c1cc(Oc2ccc3nc(N[C@@H]4CCCC[C@H]4O)sc3c2)ccn1` [BLZ-945] are -41.8% and 20.9 µM.
Regarding `NC(=O)c1ccc2[nH]c(-c3ccc(Oc4ccc(Cl)cc4)cc3)nc2c1` [BML-277], the efficacy in assay [1] was -67.3%. In assay [2], this molecule displayed an AC50 cell viability of 18.6 µM.
On the same counts, the results for `FC1=CC=C(C=C1)N2/C=C\C=C(C(=O)NC3=CC=C(OC4=C5C=C[NH]C5=NC=C4)C(=C3)F)/C2=O` [BMS-2] are -37.8% and 18.6 µM.
Consider `O=C(Nc1ncc(-c2cc(C(F)F)nn2-c2c(Cl)cccc2Cl)s1)C1CC1` [BMS-3], for which the efficacy in assay [1] was -68%. Besides, the AC50 cell viability in assay [2] was 0.833 µM.
On the same counts, the results for `CC(C)C(=O)Nc1ncc(-c2cc(C(F)F)nn2-c2c(Cl)cccc2Cl)s1` [BMS-5] are -80.8% and 18.6 µM.
As to `COc1nc(OCc2cccc(-c3ccccc3)c2C)ccc1CNCCNC(C)=O` [BMS-202], the efficacy in assay [1] was -89.9%. The same molecule showed an AC50 cell viability in assay [2] of 14.8 µM.
Turning to `COC(=O)Nc1cc(Nc2cc(NC3CC3)c3ncc(C#N)n3n2)c(Cl)c(N2CCN(C)CC2)c1` [BMS-595], the efficacy in assay [1] is -103%. Further, the AC50 cell viability in assay [2] was 0.525 µM.
In the same order, the values of `CC(C)c1cnn2c(NCc3ccccc3)cc(N[C@@H](CO)[C@H](O)CO)nc12` [BS-194] are -59.1% and 0.0833 µM.
For the molecule `C[C@@H]1CN(Cc2ccc(F)cc2)CCN1C(=O)COc1ccc(Cl)cc1NC(N)=O` [BX-471], the efficacy in assay [1] was -59.8%. For the same molecule, the AC50 cell viability in assay [2] was determined as 0.209 µM.
In the same order, the values of `Cc1nc(NC(=O)N2CCCC2C(N)=O)sc1-c1ccnc(C(C)(C)C(F)(F)F)c1` (stereo not drawn) [BYL-719] are -87.4% and 3.72 µM.
As to `Cc1ccc(NC(=O)c2ccc(CN3CC[C@H](N(C)C)C3)c(C(F)(F)F)c2)cc1Nc1nccc(-c2cncnc2)n1` [Bafetinib (INNO-406)], the efficacy in assay [1] was -131%. In assay [2], this molecule displayed an AC50 cell viability of 7.23 µM.
In the case of `CO/C1=C/C(C)=C\[C@@H](C)[C@@H](O)[C@@H](C)C/C(C)=C\C=C/[C@H](OC)[C@@H]([C@@H](C)[C@@H](O)[C@H](C)[C@@]2(O)C[C@@H](O)[C@H](C)[C@@H](C(C)C)O2)OC1=O` [Bafilomycin A1], the efficacy in assay [1] is -81.9%. In addition, in assay [2], the AC50 cell viability is 0.035 µM.
As for `C[N+](C)([O-])CCNc1ccc(NCC[N+](C)(C)[O-])c2c1C(=O)c1c(O)ccc(O)c1C2=O` [Banoxantrone], the efficacy in assay [1] was -45.2%. The AC50 cell viability in assay [2] came to 2.09 µM.
Turning to `COC(=O)[C@]12CCC(C)(C)C[C@H]1[C@H]3C(=O)\C=C\4[C@@](C)(CC[C@H]5C(C)(C)C(=O)\C(=C/[C@]45C)C#N)[C@]3(C)CC2` [Bardoxolone methyl], the efficacy in assay [1] was -91.9%. Also, the AC50 cell viability in assay [2] stood at 7.42 µM.
In the same order, the values of `CC[S+](=O)([O-])N1CC(CC#N)(n2cc(-c3ncnc4[nH]ccc34)cn2)C1` [Baricitinib] are -91.6% and 29.5 µM.
As to `O=C1Nc2nc(-c3c(O)cccc3OCC3CC3)cc([C@@H]3CCCNC3)c2CO1` [Bay-65-1942 hydrochloride], the efficacy in assay [1] is -90.5%. Moreover, in assay [2], the AC50 cell viability was found to be 9.34 µM.
For the molecule `CC(C)(C)NC(=O)Nc1cccc(Nc2ncc(F)c(NC(C)(C)CO)n2)c1` [Bayer-18], in assay [1], the efficacy was -54.8%. Further, in assay [2], the AC50 cell viability is 18.6 µM.
`Cc1c(-c2ccc(O)cc2)n(Cc2ccc(OCCN3CCCCCC3)cc2)c2ccc(O)cc12` [Bazedoxifene]: the efficacy in assay [1] is -101%. Further, the AC50 cell viability in assay [2] was determined as 20.9 µM.
In the case of `O=C(/C=C/c1cccc([S+](=O)([O-])Nc2ccccc2)c1)NO` [Belinostat], the efficacy in assay [1] is -87.7%. This molecule also displayed an AC50 cell viability in assay [2] of 0.525 µM.
In the case of `CC(C)NC(=O)[C@H]1CC[C@@H](n2c(NC(=O)c3ccc(F)cc3)nc3ccc(CN4CCC(C(C)(C)O)CC4)cc32)CC1` [Belizatinib], the efficacy in assay [1] is -92.8%. Moreover, the AC50 cell viability in assay [2] worked out at 7.23 µM.
For the molecule `CC[C@@]1(O)C(=O)OCC/2=C1/C=C/3N(CC4=C(CCNC(C)C)C5=CC=CC=C5N=C34)C2=O` [Belotecan], the efficacy in assay [1] was -80.8%. Besides, the AC50 cell viability in assay [2] is 0.0166 µM.
In the same order, the values of `Nc1nc(Nc2ccc3c(c2)CC[C@@H](N2CCCC2)CC3)nn1-c1cc2c(nn1)-c1ccccc1CCC2` [Bemcentinib] are -108% and 14.8 µM.
Take `N/C(=N\C(=O)c1nc(Cl)c(N)nc1N)NCc1ccccc1` [Benzamil]: the efficacy in assay [1] is -81%. The molecule also yielded an AC50 cell viability in assay [2] of 20.9 µM.
On the same counts, the results for `CC(C)COCC(CN(Cc1ccccc1)c1ccccc1)N1CCCC1` (stereo not drawn) [Bepridil] are -104% and 16.6 µM.
On the same counts, the results for `COc1ccc2cc3[n+](cc2c1OC)CCc1cc2c(cc1-3)OCO2` [Berberine] are -96.9% and 14.8 µM.
In the same order, the values of `CNCc1ccc(-c2cc(-c3nc(-c4ccc([S+](=O)([O-])C(C)C)cc4)cnc3N)on2)cc1` [Berzosertib] are -63% and 10.5 µM.
For the molecule `C[N+](C)(C)CC(=O)O` [Betaine], the efficacy in assay [1] was -51.8%. The AC50 cell viability in assay [2] worked out at 20.9 µM.
On to `Nc1cc(C(F)(F)F)c(-c2nc(N3CCOCC3)nc(N3CCOCC3)n2)cn1` [Bimiralisib], for which the efficacy in assay [1] was -60.2%. Moreover, the AC50 cell viability in assay [2] was 1.86 µM.
Consider `CC1=C(C)C\2=C(S1)[N]3C(=NN=C3C(CC(=O)NC4=CC=C(O)C=C4)\N=C2C5=CC=C(Cl)C=C5)C` (stereo not drawn) [Birabresib], for which the efficacy in assay [1] is -80.8%. In assay [2], this molecule gave an AC50 cell viability of 0.833 µM.
For the molecule `O=C\1NC(=O)\C(=C1C2=C[NH]C3=C2C=CC=C3)C4=C[NH]C5=C4C=CC=C5` [Bisindolylmaleimide], the efficacy in assay [1] was -85.7%. This molecule gave an AC50 cell viability in assay [2] of 18.6 µM.
With `Cc1c(N)nc([C@H](CC(N)=O)NC[C@@H](N)C(N)=O)nc1C(=O)N[C@H](C(=O)N[C@@H](C)[C@H](O)[C@@H](C)C(=O)N[C@@H](C(=O)NCCc1nc(-c2nc(C(=O)NCCC[S+](C)C)cs2)cs1)[C@@H](C)O)C(O[C@H]1O[C@H](CO)[C@H](O)[C@@H](O)[C@H]1O[C@H]1O[C@H](CO)[C@@H](O)[C@H](OC(N)=O)[C@@H]1O)c1c[nH]cn1` (stereo partly drawn) [Bleomycin sulfate], in assay [1], the efficacy is -34.2%. Also, in assay [2], the AC50 cell viability came out at 1.62 µM.
For `CC(C)C[C@H](NC(=O)[C@H](Cc1ccccc1)NC(=O)c1cnccn1)B(O)O` [Bortezomib], the efficacy in assay [1] is -94.1%. In assay [2], this molecule displayed an AC50 cell viability of 0.0132 µM.
